Data taken from patent publication US12528816B2, “Substituted imidazo [1,2-b] pyridazines and [1, 2, 4] triazolo [ 4,3-b] pyridazines as camkii inhibitors” (Cardurion Pharmaceuticals, INC., priority 2020, dated 2026).
pIC50: −log10 of the molar value.

These molecules were tested against T1, human CaMKIIδ (Homo sapiens, UniProt Q13557) (assay: Evaluation of in vitro CaMKII inhibitory activity (binding assay, TR-FRET)). Conditions: human CaMKIIδ, TR-FRET binding assay; class symbols A/B/C; read-out: Act (CaMKII inhibitory activity, binding assay).
T1 construct: Full-length, glutathione-S-transferase(GST)-tagged, human CaMKIIδ was purchased from Carna Biosciences; purchased Carna Biosciences (CaMKIIδ); Wako Pure Chemical Industries (calmodulin) 02-111
Experimental: Evaluation of In Vitro CaMKII Inhibitory Activity (Binding Assay)
In vitro CaMKIIδ inhibitory activity was evaluated by a binding assay.
Full-length bovine calmodulin was purchased from Wako Pure Chemical Industries (Osaka, Japan). Terbium-labeled anti-GST anti body (Tb-anti-GST Ab) was purchased from Life Technologies (Carlsbad, CA, USA). Fluorescent probe ligand, 5,5-difluoro-7,9-dimethyl-3-(3-oxo-3-((3-((4-(3-(piperazin-1-yl)phenyl)pyrimidin-2-yl)amino)phenyl)amino) propyl)-5H-dipyrrolo[1,2-c:2′,1′-f]
Time-resolved fluorescence resonance energy transfer (TR-FRET) assay
The fluorescent probe ligand, 5,5-difluoro-7,9-dimethyl-3-(3-oxo-3-((3-((4-(3-(piperazin-1-yl)phenyl)pyrimidin-2-yl)amino)phenyl)amino) propyl)-5H-dipyrrolo[1,2-c:2′,1′-f] […] After shaded incubation of the protein-probe mixture on ice for 30 min, the premix was dispensed in the assay plate including test inhibitors with 4 fold dilution series of eight concentrations. After 1 hr incubation at room temperature, TR-FRET signals were measured in duplicate using an EnVision microplate reader (Perkin Elmer, Waltham, MA, USA).
The half maximal inhibitory concentration (IC50) of test compounds was calculated by fitting the data with the logistic equation using XLfit (IDBS, Guildford, UK).

Q: How did the pIC50 turn out when `CCN(CC)CCNC(=O)c1cccc(-c2cnn3ccc(-c4ccc(C#N)c(O[C@@H](C)Cn5cnnn5)c4)nc23)c1` [Example 1, 3-[5-(4-cyano-3-{[(2S)-1-(1H-tetrazol-1-yl)propan-2-yl]oxy}phenyl)pyrazolo[1,5-a]pyrimidin-3-yl]-N-[2-(diethylamino)ethyl]benzamide] was run?
A: 7.00 to 8.00

Q: With `Cc1nn2ccc(-c3ccc(F)c(O[C@@H](C)Cn4cnnn4)c3)nc2c1-c1cccs1` [Example 57, 1-[(2S)-2-{2-fluoro-5-[2-methyl-3-(thiophen-2-yl)pyrazolo[1,5-a]pyrimidin-5-yl]phenoxy}propyl]-1H-tetrazole] as the molecule, how does the pIC50 read?
A: 7.00 to 8.00

Q: How did the pIC50 turn out when `C[C@@H](Cn1cncn1)Oc1cccc(-c2ccn3ncc(-c4cccs4)c3n2)c1` [Example 61, 1-[(2S)-2-{3-[3-(thiophen-2-yl)pyrazolo[1,5-a]pyrimidin-5-yl]phenoxy}propyl]-1H-1,2,4-triazole] was run?
A: > 8.00

Q: How did the pIC50 turn out when `C[C@@H](Cn1cnnn1)Oc1cc(-c2ccc3ncc(-c4ccccc4C#N)n3n2)ccc1F` [Example 121, 2-[6-(4-fluoro-3-{[(2S)-1-(1H-tetrazol-1-yl)propan-2-yl]oxy}phenyl)imidazo[1,2-b]pyridazin-3-yl]benzonitrile] was run?
A: > 8.00

Q: How did the pIC50 turn out when `C[C@@H](Cn1cnnn1)Oc1cc(-c2ccc3ncn(-c4ncccc4C#N)c3n2)ccc1F` [Example 150, 2-[5-(4-fluoro-3-{[(2S)-1-(1H-tetrazol-1-yl)propan-2-yl]oxy}phenyl)-3H-imidazo[4,5-b]pyridin-3-yl]pyridine-3-carbonitrile] was run?
A: > 8.00

Q: With `C[C@@H](Cn1cnnn1)Oc1cc(-c2ccc3ncn(-c4ncn(C)c4C#N)c3n2)ccc1F` [Example 173, 4-[5-(4-fluoro-3-{[(2S)-1-(1H-tetrazol-1-yl)propan-2-yl]oxy}phenyl)-3H-imidazo[4,5-b]pyridin-3-yl]-1-methyl-1H-imidazole-5-carbonitrile] as the molecule, how does the pIC50 read?
A: > 8.00

Same assay, conditions: in vitro CaMKII inhibitory activity (binding assay), human CaMKIIδ; read-out: Act

Q: With `C[C@@H](Cn1cnnn1)Oc1cccc(-c2ccc3ncc(-c4ccccc4C#N)n3n2)c1` [Example 239, 2-[6-(3-{[(2S)-1-(1H-tetrazol-1-yl)propan-2-yl]oxy}phenyl)imidazo[1,2-b]pyridazin-3-yl]benzonitrile] as the molecule, how does the pIC50 read?
A: > 8.00

Q: `C[C@@H](Cn1cnnn1)Oc1cncc(-c2ccc3ncc(-c4ccccc4C#N)n3n2)c1` [Example 244, 2-[6-(5-{[(2S)-1-(1H-tetrazol-1-yl)propan-2-yl]oxy}pyridin-3-yl)imidazo[1,2-b]pyridazin-3-yl]benzonitrile] was tested. Which pIC50 did it give?
A: > 8.00

Q: With `C[C@@H](Cn1cnnn1)Oc1cc(-c2ccc3ncc(-c4ncccc4C#N)n3n2)ccc1F` [Example 247, 2-[6-(4-fluoro-3-{[(2S)-1-(1H-tetrazol-1-yl)propan-2-yl]oxy}phenyl)imidazo[1,2-b]pyridazin-3-yl]pyridine-3-carbonitrile] as the molecule, how does the pIC50 read?
A: > 8.00

Q: With `C[C@@H](Cn1cnnn1)Oc1cccc(-c2ccc3ncc(-c4cnccc4C#N)n3n2)c1` [Example 251, 3-[6-(3-{[(2S)-1-(1H-tetrazol-1-yl)propan-2-yl]oxy}phenyl)imidazo[1,2-b]pyridazin-3-yl]pyridine-4-carbonitrile] as the molecule, how does the pIC50 read?
A: > 8.00

Q: How did the pIC50 turn out when `C[C@@H](Cn1cnnn1)Oc1cccc(-c2ccc3ncc(-c4cccn(C)c4=O)n3n2)c1` [Example 253, 1-methyl-3-[6-(3-{[(2S)-1-(1H-tetrazol-1-yl)propan-2-yl]oxy}phenyl)imidazo[1,2-b]pyridazin-3-yl]-1,2-dihydropyridin-2-one] was run?
A: > 8.00

Q: How did the pIC50 turn out when `C[C@@H](Cn1cnnn1)Oc1cccc(-c2ccc3ncc(-c4cncnc4C#N)n3n2)c1` [Example 267, 5-[6-(3-{[(2S)-1-(1H-tetrazol-1-yl)propan-2-yl]oxy}phenyl)imidazo[1,2-b]pyridazin-3-yl]pyrimidine-4-carbonitrile] was run?
A: > 8.00

Q: How did the pIC50 turn out when `C[C@@H](Cn1cnnn1)Oc1cc(-c2ccc3ncc(-c4c[n+]([O-])ccc4C#N)n3n2)ccc1F` [Example 269, (S)-3-(6-(3-((1-(1H-tetrazol-1-yl)propan-2-yl)oxy)-4-fluorophenyl)imidazo[1,2-b]pyridazin-3-yl)-4-cyanopyridine N-oxide] was run?
A: > 8.00

Q: How did the pIC50 turn out when `C[C@@H](Cn1cnnn1)Oc1cccc(-c2ccc3ncc(-c4ncccc4C#N)n3n2)c1` [Example 271, 2-[6-(3-{[(2S)-1-(1H-tetrazol-1-yl)propan-2-yl]oxy}phenyl)imidazo[1,2-b]pyridazin-3-yl]pyridine-3-carbonitrile] was run?
A: > 8.00

Q: How did the pIC50 turn out when `C[C@@H](Cn1cnnn1)Oc1cc(-c2ccc3ncc(-c4cnccc4C#N)n3n2)ccc1F` [Example 275, 3-[6-(4-fluoro-3-{[(2S)-1-(1H-tetrazol-1-yl)propan-2-yl]oxy}phenyl)imidazo[1,2-b]pyridazin-3-yl]pyridine-4-carbonitrile] was run?
A: > 8.00

Q: `C[C@@H](Cn1cnnn1)Oc1cccc(-c2ccc3ncn(-c4ncccc4C#N)c3n2)c1` [Example 284, 2-[5-(3-{[(2S)-1-(1H-tetrazol-1-yl)propan-2-yl]oxy}phenyl)-3H-imidazo[4,5-b]pyridin-3-yl]pyridine-3-carbonitrile] was tested. Which pIC50 did it give?
A: > 8.00

Q: With `COc1cc(-c2cnc3ccc(-c4cccc(O[C@@H](C)Cn5cnnn5)c4)nn23)c(C#N)cn1` [Example 289, 6-methoxy-4-[6-(3-{[(2S)-1-(1H-tetrazol-1-yl)propan-2-yl]oxy}phenyl)imidazo[1,2-b]pyridazin-3-yl]pyridine-3-carbonitrile] as the molecule, how does the pIC50 read?
A: > 8.00

Q: With `C[C@@H](Cn1cnnn1)Oc1cccc(-c2ccc3ncn(-c4cc(F)ccc4C#N)c3n2)c1` [Example 291, 4-fluoro-2-[5-(3-{[(2S)-1-(1H-tetrazol-1-yl)propan-2-yl]oxy}phenyl)-3H-imidazo[4,5-b]pyridin-3-yl]benzonitrile] as the molecule, how does the pIC50 read?
A: > 8.00

Q: With `C[C@@H](Cn1cnnn1)Oc1cnnc(-c2ccc3ncc(-c4cc(F)ccc4C#N)n3n2)c1` [Example 298, 4-fluoro-2-[6-(5-{[(2S)-1-(1H-tetrazol-1-yl)propan-2-yl]oxy}pyridazin-3-yl)imidazo[1,2-b]pyridazin-3-yl]benzonitrile] as the molecule, how does the pIC50 read?
A: 7.00 to 8.00

Q: `COc1ccnc(-c2cnc3ccc(-c4cccc(O[C@@H](C)Cn5cnnn5)c4)nn23)c1C#N` [Example 300, 4-methoxy-2-[6-(3-{[(2S)-1-(1H-tetrazol-1-yl)propan-2-yl]oxy}phenyl)imidazo[1,2-b]pyridazin-3-yl]pyridine-3-carbonitrile] was tested. Which pIC50 did it give?
A: > 8.00

Q: `C[C@@H](Cn1cnnn1)Oc1cc(-c2ccc3ncn(-c4cc(F)ccc4C#N)c3n2)ncn1` [Example 305, 4-fluoro-2-[5-(6-{[(2S)-1-(1H-tetrazol-1-yl)propan-2-yl]oxy}pyrimidin-4-yl)-3H-imidazo[4,5-b]pyridin-3-yl]benzonitrile] was tested. Which pIC50 did it give?
A: 7.00 to 8.00

Q: With `C[C@@H](Cn1cnnn1)Oc1ccnc(-c2ccc3ncc(-c4cc(F)ccc4C#N)n3n2)c1` [Example 311, 4-fluoro-2-[6-(4-{[(2S)-1-(1H-tetrazol-1-yl)propan-2-yl]oxy}pyridin-2-yl)imidazo[1,2-b]pyridazin-3-yl]benzonitrile] as the molecule, how does the pIC50 read?
A: > 8.00

Q: With `COc1ccc(C#N)c(-c2cnc3ccc(-c4cccc(O[C@@H](C)Cn5cnnn5)c4)nn23)n1` [Example 313, 6-methoxy-2-[6-(3-{[(2S)-1-(1H-tetrazol-1-yl)propan-2-yl]oxy}phenyl)imidazo[1,2-b]pyridazin-3-yl]pyridine-3-carbonitrile] as the molecule, how does the pIC50 read?
A: > 8.00

Q: How did the pIC50 turn out when `COc1ncnc(-c2cnc3ccc(-c4cccc(O[C@@H](C)Cn5cnnn5)c4)nn23)c1C#N` [Example 320, 4-methoxy-6-[6-(3-{[(2S)-1-(1H-tetrazol-1-yl)propan-2-yl]oxy}phenyl)imidazo[1,2-b]pyridazin-3-yl]pyrimidine-5-carbonitrile] was run?
A: > 8.00

Q: `COc1ccnc(-c2cnc3ccc(-c4ccc(F)c(O[C@@H](C)Cn5cnnn5)c4)nn23)c1C#N` [Example 321, 2-[6-(4-fluoro-3-{[(2S)-1-(1H-tetrazol-1-yl)propan-2-yl]oxy}phenyl)imidazo[1,2-b]pyridazin-3-yl]-4-methoxypyridine-3-carbonitrile] was tested. Which pIC50 did it give?
A: > 8.00

Q: With `C[C@@H](Cn1cnnn1)Oc1cccc(-c2ccc3ncc(-c4cc(F)ccc4C#N)n3n2)n1` [Example 325, 4-fluoro-2-[6-(6-{[(2S)-1-(1H-tetrazol-1-yl)propan-2-yl]oxy}pyridin-2-yl)imidazo[1,2-b]pyridazin-3-yl]benzonitrile] as the molecule, how does the pIC50 read?
A: > 8.00

Q: How did the pIC50 turn out when `C[C@@H](Cn1cnnn1)Oc1cncc(-c2ccc3ncc(-c4cc(F)ccc4C#N)n3n2)n1` [Example 326, 4-fluoro-2-[6-(6-{[(2S)-1-(1H-tetrazol-1-yl)propan-2-yl]oxy}pyrazin-2-yl)imidazo[1,2-b]pyridazin-3-yl]benzonitrile] was run?
A: > 8.00

Q: With `C[C@@H](Cn1cnnn1)Oc1nccc(-c2ccc3ncn(-c4cc(F)ccc4C#N)c3n2)n1` [Example 342, 4-fluoro-2-[5-(2-{[(2S)-1-(1H-tetrazol-1-yl)propan-2-yl]oxy}pyrimidin-4-yl)-3H-imidazo[4,5-b]pyridin-3-yl]benzonitrile] as the molecule, how does the pIC50 read?
A: 7.00 to 8.00

Q: With `C[C@@H](Cn1cnnn1)Oc1cccc(-c2ccc3ncn(-c4cc(F)ccc4C#N)c3n2)n1` [Example 345, 4-fluoro-2-[5-(6-{[(2S)-1-(1H-tetrazol-1-yl)propan-2-yl]oxy}pyridin-2-yl)-3H-imidazo[4,5-b]pyridin-3-yl]benzonitrile] as the molecule, how does the pIC50 read?
A: > 8.00
